The values that follow come from PMC6017588, “Synthesis and Structure-Activity Relationships of LP1 Derivatives: N-Methyl-N-phenylethylamino Analogues as Novel MOR Agonists” (Molecules : A Journal of Synthetic Chemistry and Natural …, 2018).

Series [1] deals with T1, DOR (Rattus norvegicus, UniProt P33533).
T1 construct: from tissue; host or cells: rat brain membranes
The series is described as follows: DOR competitive radioligand binding ([3H]-DPDPE displacement, rat brain membranes).

Series [2] addresses T2, KOR (Cavia porcellus, UniProt P41144).
T2 construct: from tissue; host or cells: guinea pig brain membranes
Nature of the series: KOR competitive radioligand binding ([3H]-(+)-U69,593 displacement, guinea pig brain membranes).

Series [3] concerns the target T3, MOR (Rattus norvegicus, UniProt P33535). The series is described as follows: Inhibition of forskolin-stimulated cAMP accumulation in HEK293 cells stably expressing MOR. The settings on record: for Emax: maximal percent inhibition of cAMP accumulation, read-out: Imax (%) ± SD MOR. The class given is cell-based. The method, then:
As typical Gi/o coupled receptor, MOR, DOR and KOR signals are mediated by AC inhibition.
(§1) Cell culture. HEK293 cells stably expressing either the EE-tagged MOR or the flag-tagged KOR [20, 21, 22] were grown in Dulbecco’s modified Eagle’s medium (DMEM) supplemented with 10% fetal calf serum, 2 mM glutamine, 100 U/mL penicillin, and 0.1 mg/mL streptomycin under 5% CO2 at 37 °C.
(§2) Measurements of cAMP accumulation. Measurements of AC activity were performed as described by Papakonstantinou et al. or the GloSensor cAMP Assay (Promega) following the Manufacturer’s instructions. The generation of cAMP was assessed in response to treatment of the cells with various concentrations of the appropriate ligand (10 pM–50 μΜ) using 50 μΜ forskolin at 37 °C. Values are means ± SD of triplicate determinations from three independent experiments. Analysis of the data was performed using Origin 7.5 software (OriginLab Corporation, Northampton, MA, USA).

The target of series [4] is T4, KOR (Homo sapiens, UniProt P41145).
T4 construct: FLAG; expressed in transfected cells
The series is described as follows: Inhibition of forskolin-stimulated cAMP accumulation in HEK293 cells stably expressing KOR. Conditions: HEK293-KOR, only at very high concentrations; not dose-dependent. The class given is cell-based. The method, then:
As typical Gi/o coupled receptor, MOR, DOR and KOR signals are mediated by AC inhibition. Given the significant MOR and moderate KOR affinity, to examine the functional role of target compounds, in opioid receptor signaling, the ability of 5a–d and 6a–d to affect forskolin-stimulated AC activity in HEK293 cells stably expressing the MOR or KOR was tested and the results are reported in Table 2.
as §1, §2

The test system of series [5] is acute thermal nociception. Nature of the series: Radiant heat tail flick test in mice. The class given is in vivo, mouse. The method, then:
The MOR agonist 5c was evaluated for acute agonistic effects in mice. In detail, it was tested for its ability to produce antinociception in the mouse tail flick test at the dose-range of 1–7 mg/kg intraperitoneal (ip) injected. The compound produced a dose-dependent analgesic effect compared to the group of mice treated with saline (* p < 0.05 vs. saline-treated mice).
Animals. Male Swiss […] mice (Envigo Laboratories, S. Pietro al Natisone (UD), Italy) weighing 25–30 g were housed six to a cage. Animals were kept at a constant room temperature (25 ± 1 °C) under a 12:12 h light and dark cycle with free access to food and water. Each mouse was used for only one experiment.
Nociceptive Test. Nociception was evaluated by the radiant heat tail-flick test. Briefly, it consisted of irradiation of the lower third of the tail with an infrared source (Ugo Basile, Comerio, Italy). The day before the experiment, mice were habituated to the procedure for measuring nociception threshold. Experiments were performed at room temperature (25 ± 1 °C). The basal pre-drug latency was established between 3 and 5 s and was calculated as the average of the first three measurements, which were performed at 5 min intervals. A cut-off latency of 15 s was established to minimize damage to the tail. All tested compounds were dissolved in pyrogen-free isotonic saline (Baxter Healthcare, Deerfield, IL, USA) and DMSO (5%) and were administered to mice ip. Post-treatment tail flick latencies (TFLs) were determined at 30, 45, 60, 75 and 90 min after ip injection.
Statistical Analysis. All values were presented as means ± SD. Intergroup comparisons were assessed using an initial two-way analysis of variance (ANOVA) followed by Duncan’s multiple range post-hoc test. Differences were considered significant when * p < 0.05. Effective dose-50 (ED50) values were calculated using least-squares linear regression analysis followed by calculation of 95% confidence limits (95% CL) by the method of Bliss.
(In general: Thermal pain tests record how soon the animal reacts.)

In series [6] the target is T3, MOR. The series is described as follows: MOR competitive radioligand binding ([3H]-DAMGO displacement, rat brain membranes). More on the design: from tissue; host or cells: rat brain membranes.
In series [7] the test system is DOR. The arrangement: method as in PMID 20599386. The settings on record: earlier work; read-out: IC50 DOR (intrinsic activity); cited from earlier work.
Details of series [8]: method as in PMID 22100511, PMID 22580287. Conditions: in vivo tested; cited from earlier work.

Structures can show the parent of a compound that is named as a salt. Where two headings read alike, the source gives them in different places.

Turning to `C[C@H]1[C@H]2Cc3ccc(O)cc3[C@]1(C)CCN2CCNC1CCCCC1` (as salt: oxalate) [5b, (2R,6R,11R)-3-[2-(Cyclohexylamino)ethyl)-6,11-dimethyl-1,2,3,4,5,6-hexahydro-2,6-methano-3-benzazocin-8-ol], the melting point (as a rule, the temperature, or range, at which the solid turns liquid) is 153 to 155 °C.
On the same count and under the same terms, in the case of `CCN(CCN1CC[C@@]2(C)c3cc(O)ccc3C[C@@H]1[C@@H]2C)c1ccccc1` (as salt: oxalate) [5d, (2R,6R,11R)-6,11-Dimethyl-{2-[ethyl(phenyl)amino]ethyl}-1,2,3,4,5,6-hexahydro-2,6-methano-3-benzazocin-8-ol] it was 158 to 160 °C; in that of `C[C@H]1[C@H]2Cc3ccc(O)cc3[C@]1(C)CCN2CCCNc1ccccc1` (as salt: oxalate) [6a, (2R,6R,11R)-3-(3-Anilinopropyl)-6,11-dimethyl-1,2,3,4,5,6-hexahydro-2,6-methano-3-benzazocin-8-ol], 149 to 150 °C.
On the same count and under the same terms, in the case of `C[C@H]1[C@H]2Cc3ccc(O)cc3[C@]1(C)CCN2CCCNC1CCCCC1` (as salt: oxalate) [6b, (2R,6R,11R)-3-[3-(Cyclohexylamino)propyl)-6,11-dimethyl-1,2,3,4,5,6-hexahydro-2,6-methano-3-benzazocin-8-ol] it was 136 to 138 °C; in that of `C[C@H]1[C@H]2Cc3ccc(O)cc3[C@]1(C)CCN2CCCN(C)c1ccccc1` (as salt: oxalate) [6c, (2R,6R,11R)-6,11-Dimethyl-{3-[methyl(phenyl)amino]propyl}-1,2,3,4,5,6-hexahydro-2,6-methano-3-benzazocin-8-ol], 140 to 142 °C.
The same measure, in the same setting: in the case of `CCN(CCCN1CC[C@@]2(C)c3cc(O)ccc3C[C@@H]1[C@@H]2C)c1ccccc1` (as salt: oxalate) [6d, (2R,6R,11R)-6,11-Dimethyl-{3-[ethyl(phenyl)amino]propyl}-1,2,3,4,5,6-hexahydro-2,6-methano-3-benzazocin-8-ol] it was 138 to 139 °C.
As to `C[C@H]1[C@H]2Cc3ccc(O)cc3[C@]1(C)CCN2CCN(C)c1ccccc1` [5c, (2R,6R,11R)-6,11-Dimethyl-{2-[methyl(phenyl)amino]ethyl}-1,2,3,4,5,6-hexahydro-2,6-methano-3-benzazocin-8-ol], the values for the Ki in series [1], in [2] and in series [6] were 147 ± 5.7 nM, 31 ± 1.3 nM and 6.1 ± 0.5 nM, respectively. Also, in [3] (cAMP accumulation), the “Functional profile at MOR” value is listed as “MOR agonist”. Also, the Emax in series [3] was determined as 72%. In addition, the cAMP inhibition in series [4] was 30%. Further, the ED50 – broadly, the dose that gives a 50% effect, or the effect in half of the subjects – in series [5] (0.75 h, mouse tail flick, ip, 45 min post-treatment, read-out: ED50 (95% CL)) amounted to 4.33 mg/kg. The “Time of maximal antinociceptive activity” value in series [5] (after ip injection, mouse tail flick) turned out to be 45 min. Also, the “Duration of significant antinociceptive activity” value in series [5] (highest dose (7 mg/kg ip), after injection) is 75 min. Further, the “Effect of naloxone pretreatment on antinociception” value in series [5] (naloxone 3 mg/kg sc, 30 min prior to 5c, data not shown) is reported as “prevented its antinociceptive effect”.
As for `C[C@H]1[C@H]2Cc3ccc(O)cc3[C@]1(C)CCN2CCC(=O)Nc1ccccc1` [LP1, reference compound], the Ki (commonly a measure of affinity in units of concentration, obtained from inhibition or displacement) worked out at 29.1 ± 1 nM in [1] ([3H]DPDPE displacement, rat brain membranes, read-out: Ki (nM) ± SEM DOR); 110 ± 6 nM in series [2] ([3H]U69,593 displacement, guinea pig brain membranes, read-out: Ki (nM) ± SEM KOR); 0.83 ± 0.05 nM in series [6] ([3H]DAMGO displacement, rat brain membranes, read-out: Ki (nM) ± SEM MOR). Besides, the Emax in [3] was 73 ± 3.8%. Moreover, the IC50 (usually the point on the concentration scale where inhibition reaches its midpoint) in series [7] was 0.012 µM. Besides, the “ED50 (analgesia)” value in series [8] was 2.03 mg/kg.
